{
  "source": "patent US20100273144A1",
  "about": "“NOVEL USE OF GRP 94 IN VIRUS INFECTION” (priority 2008, published 2010)",
  "molecules": {"B1": {"name": "tumor necrosis-related apoptosis-inducing ligand (protein, UniProt P50591 1-281, looked up)", "Tumor necrosis factor ligand …": "MAMMEVQGGPSLGQTCVLIVIFTVLLQSLCVAVTYVYFTNELKQMQDKYSKSGIACFLKEDDSYWDPNDEESMNSPCWQVKWQLRQLVRKMILRTSEETISTVQEKQQNISPLVRERGPQRVAAHITGTRGRSNTLSSPNSKNEKALGRKINSWESSRSGHSFLSNLHLRNGELVIHEKGFYYIYSQTYFRFQEEIKENTKNDKQMVQYIYKYTSYPDPILLMKSARNSCWSKDAEYGLYSIYQGGIFELKENDRIFVSVTNEHLIDMDHEASFFGAFLVG"}},
  "key": {"IKKα/β": {"target": "T1, IKKα/β (Homo sapiens, UniProt O14920+O15111)", "T1 construct": "were monitored using GRP94-overexpressing and control cell lines; endogenous in cells; host or cells: Huh-7 cells stably carrying pCDNA3.1 (control) or pCDNA3.1-GRP94", "T1 sequence (O15111 whole entry)": "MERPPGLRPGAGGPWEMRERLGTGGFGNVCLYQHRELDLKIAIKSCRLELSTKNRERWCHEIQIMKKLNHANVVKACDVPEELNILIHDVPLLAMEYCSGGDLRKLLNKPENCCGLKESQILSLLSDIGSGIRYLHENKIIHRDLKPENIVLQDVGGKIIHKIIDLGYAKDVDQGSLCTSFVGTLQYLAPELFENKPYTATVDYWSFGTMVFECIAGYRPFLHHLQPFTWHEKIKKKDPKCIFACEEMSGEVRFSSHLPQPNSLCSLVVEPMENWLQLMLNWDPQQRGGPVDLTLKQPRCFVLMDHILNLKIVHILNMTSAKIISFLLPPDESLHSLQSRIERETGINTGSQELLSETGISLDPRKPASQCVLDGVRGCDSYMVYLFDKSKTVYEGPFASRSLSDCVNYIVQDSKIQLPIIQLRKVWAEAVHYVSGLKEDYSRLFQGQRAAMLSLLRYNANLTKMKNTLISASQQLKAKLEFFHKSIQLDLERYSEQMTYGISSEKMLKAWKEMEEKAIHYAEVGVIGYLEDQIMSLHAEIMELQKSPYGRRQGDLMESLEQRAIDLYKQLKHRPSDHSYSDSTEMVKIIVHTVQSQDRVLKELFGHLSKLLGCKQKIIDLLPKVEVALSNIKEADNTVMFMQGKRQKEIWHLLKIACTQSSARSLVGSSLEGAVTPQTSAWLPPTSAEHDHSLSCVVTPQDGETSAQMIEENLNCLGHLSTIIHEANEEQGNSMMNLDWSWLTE", "T1 sequence (O14920 whole entry)": "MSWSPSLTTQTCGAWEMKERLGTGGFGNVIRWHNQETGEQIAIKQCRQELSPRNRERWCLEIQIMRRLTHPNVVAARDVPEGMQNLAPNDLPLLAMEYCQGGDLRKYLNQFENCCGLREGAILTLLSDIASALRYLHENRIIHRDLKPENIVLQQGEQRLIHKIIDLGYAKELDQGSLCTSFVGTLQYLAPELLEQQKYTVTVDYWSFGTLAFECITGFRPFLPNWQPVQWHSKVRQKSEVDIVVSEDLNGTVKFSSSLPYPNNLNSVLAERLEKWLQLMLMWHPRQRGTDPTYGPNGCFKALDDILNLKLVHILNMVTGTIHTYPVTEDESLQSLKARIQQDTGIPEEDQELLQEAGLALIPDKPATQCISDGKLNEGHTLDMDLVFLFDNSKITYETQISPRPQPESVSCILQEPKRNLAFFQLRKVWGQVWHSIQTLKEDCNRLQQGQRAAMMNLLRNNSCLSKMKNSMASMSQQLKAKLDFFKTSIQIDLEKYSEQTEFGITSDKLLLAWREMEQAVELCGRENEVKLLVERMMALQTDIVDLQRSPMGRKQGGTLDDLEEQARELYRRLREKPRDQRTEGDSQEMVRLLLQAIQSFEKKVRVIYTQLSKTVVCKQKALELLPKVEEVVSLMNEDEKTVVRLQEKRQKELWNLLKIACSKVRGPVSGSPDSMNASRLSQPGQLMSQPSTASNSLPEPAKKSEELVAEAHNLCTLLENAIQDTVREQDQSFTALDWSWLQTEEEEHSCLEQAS", "T1 sequence (Q9Y6K9 whole entry partner)": "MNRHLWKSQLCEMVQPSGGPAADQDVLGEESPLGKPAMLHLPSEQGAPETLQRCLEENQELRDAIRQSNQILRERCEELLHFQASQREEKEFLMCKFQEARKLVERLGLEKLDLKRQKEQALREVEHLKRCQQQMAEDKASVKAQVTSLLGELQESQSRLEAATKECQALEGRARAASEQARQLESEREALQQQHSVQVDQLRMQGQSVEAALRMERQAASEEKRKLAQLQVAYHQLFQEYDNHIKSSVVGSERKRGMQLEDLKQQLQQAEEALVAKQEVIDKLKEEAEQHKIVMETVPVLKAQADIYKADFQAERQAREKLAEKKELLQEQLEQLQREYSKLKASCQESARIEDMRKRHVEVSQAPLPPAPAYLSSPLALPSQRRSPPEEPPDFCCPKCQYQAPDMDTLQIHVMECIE", "assay": "Effect of BAY11-7082 on expression of NF-κB-related survival genes, Western-blot, control and GRP94-overexpressing cells", "format": "cell-based", "set-up": "dose or concentration left out as unconfirmed", "method": "Western-blot analysis—Proteins were resolved by 8% or 13.5% SDS-PAGE and transferred to nitrocellulose membranes (Amersham). The membranes were blocked overnight with 5% skimmed milk in Tris-buffered saline (TBS) [20 mM Tris-HCl (pH 7.5), 150 mM NaCl, 0.5% Tween-20] and then incubated with monoclonal antibodies against actin (1:5000), GRP94 (1:1000), Hsp90 (1:1000), TRAF2 (1:500), XIAP (1:1000), survivin (1:500), glyceraldehyde-3-phosphate dehydrogenase (GAPDH) (1:5000) and IKKα/β for 5 hours. A monoclonal anti-human actin antibody was used as a control. […]\nThe inventors tried to determine the stage of the signaling cascade at which NF-κB is activated by GRP94. […] The effects of BAY11-7082, a specific inhibitor of IKKα/β, on the expression of NF-κB-related gene products were monitored using GRP94-overexpressing and control cell lines, and the obtained results are shown in FIG. 4B. […] Effect of abrogation of IKKα/β activity by BAY11-7082 on the expression of NF-κB-related survival genes was monitored by Western-blot analysis; lanes 2 and 4 show results with and lanes 1 and 3 show results without treatment of the drug […] for 4 hrs on control (lanes 1 and 2) and GRP94-overexpressing (lanes 3 and 4) cells."}, "NF-κB": {"system": "NF-κB", "assay": "NF-κB reporter assay (firefly luciferase under NF-κB response element) in 293T cells", "format": "cell-based", "conditions": "10 ng TNF-α for 12 hours, vs mock-treated", "method": "(§1) Luciferase assay—Luciferase assays were performed using a luciferase assay kit (Promega), according to the manufacturer's instructions. The luciferase activities in the cells were normalized by the protein concentrations, as determined by the Bradford assay.\nThe activation of NF-κB by overproduction of GRP94 was investigated by measuring the activity of a reporter gene (firefly luciferase) under the control of the […] response element (FIG. 4A). […] 293T cells were transfected with pNF-κB-Luc, which encodes the firefly luciferase gene under the control of a NF-κB response element, with control vector plasmid (pCDNA3.1) (lane 3) or with the plasmid pCDNA3.1-GRP94, which produces. GRP94 (lane 4). Control plasmid pRLCMV-Luc (Promega) was also cotransfected to normalize transfection efficiency. After incubation of the cells for 48 hours, cells were further incubated in serum-free medium for 6 hours, mock-treated (lane 1), or treated with 10 ng TNF-α for 12 hours (lane 2), before luciferase activities were measured. Three independent experiments were performed and the relative values (TNF-α-treated vs mock-treated, and GRP94-overexpressed vs mock-expressed) are shown."}, "IκBα": {"system": "IκBα", "assay": "Time-course analysis of IκBα levels after TNF-α treatment, Western-blot, Huh-7 cells with or without HCV replicons", "format": "cell-based", "conditions": "TNF-α 10 ng/ml", "method": "Western-blot analysis—Proteins were resolved by 8% or 13.5% SDS-PAGE and transferred to nitrocellulose membranes (Amersham). The membranes were blocked overnight with 5% skimmed milk in Tris-buffered saline (TBS) [20 mM Tris-HCl (pH 7.5), 150 mM NaCl, 0.5% Tween-20] and then incubated with monoclonal antibodies against actin (1:5000), GRP94 (1:1000), Hsp90 (1:1000), TRAF2 (1:500), XIAP (1:1000), survivin (1:500), glyceraldehyde-3-phosphate dehydrogenase (GAPDH) (1:5000) and IKKα/β for 5 hours. A monoclonal anti-human actin antibody was used as a control. Horseradish-peroxidase-conjugated anti-mouse, anti-goat or anti-rabbit immunoglobulin Gs (IgGs) were used as secondary antibodies (1:5000), and bands were visualized by enhanced chemiluminescence (ECL) according to the manufacturer's instructions (Amersham).\nThe protein level of IκBα in control Huh-7 cells, Huh-7 cells containing replicons FK-E1 (UAA), and FK-E2(UAA) were measured by Western-blot assays with time; this is because the phosphorylation-dependent degradation of IκBs is an essential step for NF-κB activation after TNF-α treatment. […] Within 5 minutes of TNF-α treatment, IκBα proteins were not detected in the control Huh-7 cells (FIG. 1C). In Huh-7 cells containing the replicon FK-E1(UAA) that expresses NS3-5B, core and E1 proteins, the degradation of IκBα was delayed by up to 10 minutes after treatment with TNF-α (FIG. 1C)."}, "[1]": {"system": "control, GRP94-overexpressing and E2-expressing cells", "assay": "TRAIL-induced apoptosis monitored by cleavage of PARP (Western-blot) in control, GRP94-overexpressing and E2-expressing cells", "format": "cell-based", "conditions": "200 ng/ml TRAIL for 2 hours", "text": "The role of GRP94 in inhibition of apoptosis during HCV infection was investigated using a siRNA against GRP94 and a control siRNA, the GRP94-overexpressing, and the E2-expressing cell lines (FIG. 5). The strong apoptosis inducer TRAIL was used to mimic the physiological conditions of a virus infection that induces TRAIL expression. Cleavage of PARP, which is a substrate of activated caspase-3/7, was used to monitor the process of apoptosis. The obtained results were shown in FIG. 5, wherein control (lanes 1-4), GRP94-overexpressing (lanes 5-8), and E2-expressing (lanes 9-12) cells were mock-treated (lanes 1, 3, 5, 7, 9 and 11) or treated with 200 ng/ml TRAIL (lanes 2, 4, 6, 8, 10 and 12) for 2 hours after treatment with a control siRNA (lanes 3, 4, 7, 8, 11 and 12) or a siRNA against GRP94 (lanes 1, 2, 5, 6, 9 and 10). The levels of uncleaved PARP, GRP94, HCV E2 and actin were monitored by Western-blot analysis."}, "HCV-infected Huh-7 cells": {"system": "HCV-infected Huh-7 cells", "assay": "TRAIL-induced PARP cleavage in mock-infected and HCV (JFH 5a-Rluc)-infected Huh-7 cells", "format": "cell-based", "conditions": "TRAIL for 18 hours", "method": "Huh-7 cells were transfected with a control siRNA (lanes 1, 2, 5 and 6) and a siRNA against GRP94 (lanes 3, 4, 7 and 8) and incubated for 48 hours. The siRNA-treated cells were mock-infected (lanes 1-4) or infected with HCV (JFH 5a-Rluc) (lanes 5-8) and incubated for 24 hours. After infection, the cells were mock-treated (lanes 1, 3, 5 and 7) or treated with TRAIL (lanes 2, 4, 6 and 8) for 18 hours. These cells were used to monitor protein levels (upper panel) and virus infection (lower panel). The levels of PARP, GRP94 and actin were monitored by Western-blot analysis. The HCV infectivity levels were assessed by measuring luciferase activities. Experiments were performed six times with triplicate samples each, and mean and standard deviation values of the experiments are shown as columns and lines, respectively."}, "HCV strain JFH 5a-Rluc": {"system": "HCV strain JFH 5a-Rluc", "assay": "HCV infectivity assessed by luciferase activity of JFH 5a-Rluc in Huh-7 cells", "format": "cell-based, hepatitis C virus", "conditions": "siRNA 48 hours before infection, TRAIL 18 hours after 24 hours infection", "method": "as §1\nTo confirm that the anti-apoptotic activity of E2 is induced by GRP94 and NF-κB-related gene products in HCV-infected cells, the levels of GRP94, XIAP, TRAF2, FLIP and Bcl-xL were monitored using a HCV-infection system. The infectious JFH1 strain of HCV (Wakita T, Pietschmann T, Kato T, Date T, Miyamoto M, Zhao Z, Murthy K, et al. Production of infectious hepatitis C virus in tissue culture from a cloned viral genome. Nat Med 2005; 11:791-796) and a JFH1 derivative known as JFH5a-Rluc with a reporter gene (Renilla luciferase) in the NS5A of HCV (FIG. 6A) that is suitable for quantification of HCV infection (Kim C S, Jung J H, Wakita T, Yoon S K, Jang S K. Monitoring the Antiviral Effect of Alpha Interferon on Individual Cells. J. Virol. 2007; 81:8814-8820) were used. […]\nHuh-7 cells were transfected with a control siRNA (lanes 1, 2, 5 and 6) and a siRNA against GRP94 (lanes 3, 4, 7 and 8) and incubated for 48 hours. […] The levels of PARP, GRP94 and actin were monitored by Western-blot analysis. The HCV infectivity levels were assessed by measuring luciferase activities. […]"}},
  "data": [
    {"molecule": "Cc1ccc(S(=O)(=O)/C=C/C#N)cc1", "note": "[BAY11-7082]", "values": [
      {"measurement": "levels of GRP94 protein", "setting": "IKKα/β", "result": "reduced"},
      {"measurement": "levels of XIAP, TRAF2, survivin, and IKKα/β", "setting": "IKKα/β; GRP94-expressing and control cells", "result": "markedly reduced"}
    ]},
    {"molecule": "tumor necrosis factor (TNF)-α [TNF-α]", "values": [
      {"measurement": "increase in NF-κB reporter activity", "setting": "NF-κB", "result": "about 10 fold"},
      {"measurement": "time after TNF-α treatment at which residual IκBα proteins were not detected", "setting": "IκBα; FK-E2(UAA)-containing Huh-7 cells", "result": "≤ 5", "unit": "min"},
      {"measurement": "delay of degradation of IκBα after treatment with TNF-α", "setting": "IκBα; Huh-7 cells containing replicon FK-E1(UAA)", "result": "up to 10 minutes"},
      {"measurement": "time after TNF-α treatment at which IκBα proteins were not detected", "setting": "IκBα; control Huh-7 cells", "result": "≤ 5", "unit": "min"}
    ]},
    {"molecule": "B1", "values": [
      {"measurement": "cleavage of PARP", "setting": "[1]; GRP94-overexpressing and HCV-E2-expressing cells", "result": "blocked"},
      {"measurement": "cleavage of PARP", "setting": "[1]; control cells, with control siRNA or GRP94 siRNA", "result": "observed"},
      {"measurement": "levels of PARP cleavage", "setting": "HCV-infected Huh-7 cells; HCV-infected Huh-7 cells", "result": "almost no reductions"},
      {"measurement": "cleavage of PARP", "setting": "HCV-infected Huh-7 cells; mock-infected Huh-7 cells", "result": "observed"},
      {"measurement": "reduction of infectivity of HCV", "setting": "HCV strain JFH 5a-Rluc", "result": "about 20%"}
    ]}
  ]
}
